The values below come from patent US20250025443A1, “COMPOUNDS AND METHODS FOR TREATING CORONA VIRUSES” (CLEAR CREEK BIO, INC., priority 2021, published 2025).

Structures are written as SMILES.

One assay addresses SARS-CoV-2 Papain-Like Protease (PLpro) (Severe acute respiratory syndrome coronavirus 2 (2019-nCoV) (SARS-CoV-2), UniProt P0DTD1). Briefly: biochemical. Particulars: PLpro 6.25 nM, substrate 25 μM, 60 min at 25° C.; for more potent compounds PLpro 1 nM, 120 min; read-out: PLpro IC50.
The IC50 is the concentration at which inhibition is half-maximal. For `COc1ccc(C)c(C(=O)N[C@H](C)c2cccc3ccccc23)c1` [Compound 136, (R)-5-Methoxy-2-methyl-N-(1-(naphthalen-1-yl)ethyl)benzamide], the IC50 lay within 1000 to 5000 nM.

Take `CC(=O)c1ccc(C)c(C(=O)N[C@H](C)c2cccc3ccccc23)c1` [Compound 155, (R)-5-Acetyl-2-methyl-N-(1-(naphthalen-1-yl)ethyl)benzamide]: the IC50 was more than 5000 nM.

Take `Cc1ccc(NC2CNC2)cc1C(=O)NC(C)c1cccc2c1OCCO2` (centres unmarked) [Compound 168, 5-(Azetidin-3-ylamino)-N-(1-(2,3-dihydrobenzo[b][1,4]dioxin-5-yl)ethyl)-2-methylbenzamide]: the IC50 was more than 5000 nM.

As for `Cc1ccc(NC2CNC2)cc1C(=O)NC(C)c1cccc2c1CCCC2` (centres unmarked) [Compound 172, 5-(Azetidin-3-ylamino)-2-methyl-N-(1-(5,6,7,8-tetrahydronaphthalen-1-yl)ethyl)benzamide], the IC50 was more than 5000 nM.

Staying with this assay, now noted: SARS-CoV-2 PLpro enzymatic fluorescence assay; read-out: PLpro IC50.
For the compound `Cc1ccc(Nc2cnn(C)c2)cc1C(=O)N[C@H](C)c1cccc(-c2ccc(CN[C@H]3CC[C@@H](O)C3)s2)c1` [Compound 137, N-((R)-1-(3-(5-((((1S,3R)-3-Hydroxycyclopentyl)amino)methyl)thiophen-2-yl)phenyl)ethyl)-2-methyl-5-((1-methyl-1H-pyrazol-4-yl)amino)benzamide], the IC50 was in the range of 1000 to 5000 nM.

Consider `Cc1ccc(N)cc1S(=O)(=O)N[C@H](C)c1cccc2ccccc12` [Compound 138, (R)-5-Amino-2-methyl-N-(1-(naphthalen-1-yl)ethyl)benzenesulfonamide], for which the IC50 is more than 5000 nM.

For `CC(c1cccc2ccccc12)N1CCc2ccc(NC(=O)Cc3ccccc3)cc2C1` (centres unmarked) [Compound 139, N-(2-(1-(Naphthalen-1-yl)ethyl)-1,2,3,4-tetrahydroisoquinolin-7-yl)-2-phenylacetamide], the IC50 was more than 5000 nM.

With `Cc1ccc(Nc2cn[nH]c2)cc1C(=O)N[C@H](C)c1cccc(-c2ccc(CN[C@H]3CC[C@@H](O)C3)s2)c1` [Compound 140, 5-((1H-Pyrazol-4-yl)amino)-N-((R)-1-(3-(5-((((1S,3R)-3-hydroxycyclopentyl)amino)methyl)thiophen-2-yl)phenyl)ethyl)-2-methylbenzamide], the IC50 is 1000 to 5000 nM.

`Cc1cc2cn[nH]c2cc1C(=O)N[C@H](C)c1cccc2ccccc12` [Compound 142, (R)-5-Methyl-N-(1-(naphthalen-1-yl)ethyl)-1H-indazole-6-carboxamide]: the IC50 is 100 to 1000 nM.

With `CC(c1cccc2ccccc12)N1CC(CC(=O)NCc2cccc(F)c2)C1` (centres unmarked) [Compound 143, N-(3-Fluorobenzyl)-2-(1-(1-(naphthalen-1-yl)ethyl)azetidin-3-yl)acetamide], the IC50 is more than 5000 nM.

`CC(c1cccc2ccccc12)N1CCC(C(=O)NCc2cccc(F)c2)C1` (centres unmarked) [Compound 144, N-(3-Fluorobenzyl)-1-(1-(naphthalen-1-yl)ethyl)pyrrolidine-3-carboxamide]: the IC50 was more than 5000 nM.

`Cc1cc2c(cc1C(=O)N[C@H](C)c1cccc3ccccc13)OCO2` [Compound 145, (R)-6-Methyl-N-(1-(naphthalen-1-yl)ethyl)benzo[d][1,3]dioxole-5-carboxamide]: the IC50 fell in the range of 1000 to 5000 nM.

Consider `Cc1ccc(N)cc1C(=O)NC1(c2cccc3ccccc23)CC1` [Compound 147, 5-Amino-2-methyl-N-(1-(naphthalen-1-yl)cyclopropyl)benzamide], for which the IC50 is 100 to 1000 nM.

For the compound `Cc1cc2cc(CN)[nH]c2cc1C(=O)N[C@H](C)c1cccc2ccccc12` [Compound 148, (R)-2-(Aminomethyl)-5-methyl-N-(1-(naphthalen-1-yl)ethyl)-1H-indole-6-carboxamide], the IC50 was in the range of 100 to 1000 nM.

`C[C@H](c1cccc2ccccc12)N1C[C@@H]2[C@H](C1)[C@H]2C(=O)NCc1cccc(F)c1` [Compound 149]: the IC50 is more than 5000 nM.

On to `Cc1cc2cccnc2cc1C(=O)N[C@H](C)c1cccc2ccccc12` [Compound 150, (R)-6-Methyl-N-(1-(naphthalen-1-yl)ethyl)quinoline-7-carboxamide], for which the IC50 lay in the range of 1000 to 5000 nM.

Regarding `Cc1cc2nc(CN)[nH]c2cc1C(=O)N[C@H](C)c1cccc(-c2ccc(CN[C@H]3CC[C@@H](O)C3)s2)c1` [Compound 151, 2-(Aminomethyl)-N-((R)-1-(3-(5-((((1S,3R)-3-hydroxycyclopentyl)amino)methyl)thiophen-2-yl)phenyl)ethyl)-5-methyl-1H-benzo[d]imidazole-6-carboxamide], the IC50 fell in the range of 100 to 1000 nM.

As for `Cc1ccc(OC2COC2)cc1C(=O)N[C@H](C)c1cccc2ccccc12` [Compound 152, (R)-2-Methyl-N-(1-(naphthalen-1-yl)ethyl)-5-(oxetan-3-yloxy)benzamide], the IC50 lay in the range of 1000 to 5000 nM.

Consider `Cc1cc2cc[nH]c2cc1C(=O)N[C@H](C)c1cccc2ccccc12` [Compound 153, (R)-5-Methyl-N-(1-(naphthalen-1-yl)ethyl)-1H-indole-6-carboxamide], for which the IC50 lay within 1000 to 5000 nM.

Regarding `Cc1cc2cccnc2cc1C(=O)N[C@H](C)c1cccc(-c2ccc(CN[C@H]3CC[C@@H](O)C3)s2)c1` [Compound 154, N-((R)-1-(3-(5-((((1S,3R)-3-Hydroxycyclopentyl)amino)methyl)thiophen-2-yl)phenyl)ethyl)-6-methylquinoline-7-carboxamide], the IC50 was 1000 to 5000 nM.

Take `Cc1cc2cc(C3CNC3)[nH]c2cc1C(=O)N[C@H](C)c1cccc2ccccc12` [Compound 156, (R)-2-(Azetidin-3-yl)-5-methyl-N-(1-(naphthalen-1-yl)ethyl)-1H-indole-6-carboxamide]: the IC50 is 1000 to 5000 nM.

On to `Cc1ccc(OCCNC(=O)OC(C)(C)C)cc1C(=O)N[C@H](C)c1cccc2ccccc12` [Compound 158, (R)-tert-Butyl(2-(4-methyl-3-((1-(naphthalen-1-yl)ethyl)carbamoyl)phenoxy)ethyl)carbamate], for which the IC50 was 1000 to 5000 nM.

For `Cc1ccc(OCCN(C)C)cc1C(=O)N[C@H](C)c1cccc2ccccc12` [Compound 160, (R)-5-(2-(Dimethylamino)ethoxy)-2-methyl-N-(1-(naphthalen-1-yl)ethyl)benzamide], the concentration for half-maximal inhibition (IC50) lay within 100 to 1000 nM.

For `CCS(=O)(=O)N1CCC([C@@H](C)NC(=O)c2cc(NC3CN(C(=O)OC(C)(C)C)C3)ccc2C)CC1` [Compound 161, tert-Butyl (R)-3-((3-((1-(1-(ethylsulfonyl)piperidin-4-yl)ethyl)carbamoyl)-4-methylphenyl)amino)azetidine-1-carboxylate], the IC50 was more than 5000 nM.

On to `Cc1ccc(OC2CCNCC2)cc1C(=O)N[C@H](C)c1cccc2ccccc12` [Compound 162, (R)-2-Methyl-N-(1-(naphthalen-1-yl)ethyl)-5-(piperidin-4-yloxy)benzamide], for which the IC50 lay in the range of 100 to 1000 nM.

On to `Cc1ccc(N)cc1NC(=O)C(C)c1cccc2ccccc12` (centres unmarked) [Compound 163, N-(5-Amino-2-methylphenyl)-2-(naphthalen-1-yl)propanamide], for which the IC50 was more than 5000 nM.

Regarding `Cc1ccc(OC2CCN(C(=O)OC(C)(C)C)CC2)cc1C(=O)N[C@H](C)c1cccc2ccccc12` [Compound 164, (R)-tert-Butyl 4-(4-methyl-3-((1-(naphthalen-1-yl)ethyl)carbamoyl)phenoxy)piperidine-1-carboxylate], the IC50 is 1000 to 5000 nM.

Consider `CC(=O)N(c1ccc(C)c(C(=O)N[C@H](C)c2cccc3ccccc23)c1)C(CN)CO` (stereo partly drawn) [Compound 165, 5-(N-(1-Amino-3-hydroxypropan-2-yl)acetamido)-2-methyl-N-((R)-1-(naphthalen-1-yl)ethyl)benzamide], for which the IC50 is more than 5000 nM.

In the case of `CCS(=O)(=O)N1CCC([C@@H](C)NC(=O)c2cc(NC3CNC3)ccc2C)CC1` [Compound 166, (R)-5-(Azetidin-3-ylamino)-N-(1-(1-(ethylsulfonyl)piperidin-4-yl)ethyl)-2-methylbenzamide], the IC50 is more than 5000 nM.

For `Cc1cc2ccc(=O)[nH]c2cc1C(=O)N[C@H](C)c1cccc2ccccc12` [Compound 167, (R)-6-Methyl-N-(1-(naphthalen-1-yl)ethyl)-2-oxo-1,2-dihydroquinoline-7-carboxamide], the IC50 is more than 5000 nM.

In the case of `Cc1ccc(NC2CNC2)cc1C(=O)NC1(c2cccc(-c3cccs3)c2)CC1` [Compound 169, 5-(Azetidin-3-ylamino)-2-methyl-N-(1-(3-(thiophen-2-yl)phenyl)cyclopropyl)benzamide], the IC50 lay in the range of 100 to 1000 nM.

In the case of `Cc1cc2cc(CN)[nH]c2cc1C(=O)NC1(c2cccc3ccccc23)CC1` [Compound 170, 2-(Aminomethyl)-5-methyl-N-(1-(naphthalen-1-yl)cyclopropyl)-1H-indole-6-carboxamide], the IC50 is less than 100 nM.

Turning to `Cc1ccc(OC2CNC2)cc1C(=O)NC1(c2cccc3ccccc23)CC1` [Compound 171, 5-(Azetidin-3-yloxy)-2-methyl-N-(1-(naphthalen-1-yl)cyclopropyl)benzamide], the IC50 lay in the range of 100 to 1000 nM.

Regarding `Cc1cc2cc(CN(C)C)[nH]c2cc1C(=O)NC1(c2cccc3ccccc23)CC1` [Compound 173, 2-((Dimethylamino)methyl)-5-methyl-N-(1-(naphthalen-1-yl)cyclopropyl)-1H-indole-6-carboxamide], the IC50 was in the range of 100 to 1000 nM.

Take `Cc1cc2cn[nH]c2cc1C(=O)NC1(c2cccc3ccccc23)CC1` [Compound 176, 5-Methyl-N-(1-(naphthalen-1-yl)cyclopropyl)-1H-indazole-6-carboxamide]: the IC50 was in the range of 100 to 1000 nM.

`Cc1ccc(NC2CNC2)cc1C(=O)NC1(c2cccc3ccccc23)CC1` [Compound 177, 5-(Azetidin-3-ylamino)-2-methyl-N-(1-(naphthalen-1-yl)cyclopropyl)benzamide]: the IC50 is 100 to 1000 nM.

`c1ccc2c(C3(NCc4ccc5[nH]ncc5c4)CC3)cccc2c1` [Compound 178, N-((1H-indazol-5-yl)methyl)-1-(naphthalen-1-yl)cyclopropan-1-amine]: the IC50 was more than 5000 nM.

As to `Cc1cc2cc(CNC(=O)OC(C)(C)C)[nH]c2cc1C(=O)NC1(c2cccc3ccccc23)CC1` [Compound 180, tert-Butyl((5-methyl-6-((1-(naphthalen-1-yl)cyclopropyl)carbamoyl)-1H-indol-2-yl)methyl)carbamate], the IC50 lay in the range of 100 to 1000 nM.
